The text below walks through data of PMC5733478, “A Non-imaging High Throughput Approach to Chemical Library Screening at the Unmodified Adenosine-A3 Receptor in Living Cells” (Frontiers in Pharmacology, 2017).

SMILES strings stand for the structures. Counter-ions that a name gives are not always drawn.

The target in the assay is T1, human A3AR (Homo sapiens, UniProt P0DMS8).
T1 construct: expressed in transfected cells
T1 sequence (P0DMS8 1-318): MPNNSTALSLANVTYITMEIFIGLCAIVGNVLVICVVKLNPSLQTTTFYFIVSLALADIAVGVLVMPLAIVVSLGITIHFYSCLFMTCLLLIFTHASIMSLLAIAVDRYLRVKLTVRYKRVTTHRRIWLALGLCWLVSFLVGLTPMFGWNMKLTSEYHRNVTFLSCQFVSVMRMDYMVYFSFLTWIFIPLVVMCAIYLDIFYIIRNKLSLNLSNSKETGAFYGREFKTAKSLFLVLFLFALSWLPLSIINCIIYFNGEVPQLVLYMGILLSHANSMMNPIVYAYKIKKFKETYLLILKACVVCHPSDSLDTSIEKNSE
As to the kind of experiment: LOPAC library primary screen: single concentration (10 μM) inhibition of 25 nM CA200645 binding, PHERAstar FS.
As to `COc1ccc2c(c1)CC[C@@H]1[C@@H]2CC[C@]2(C)[C@@H](NCCCCCCN3C(=O)C=CC3=O)CC[C@@H]12` [U-73122], the “% 25 nM CA200645 binding” value came to 73.1 ± 7.4%.
As to `COc1ccc2c(c1)CC[C@@H]1[C@@H]2CC[C@]2(C)[C@@H](NCCCCCCN3C(=O)CCC3=O)CC[C@@H]12` [U-73343], the “% 25 nM CA200645 binding” value is 99.9 ± 5.3%.
For `C[C@]12C=CC(=O)C=C1CC[C@@H]1C2=CC[C@]2(C)[C@@H](C(=O)CN3CCN(c4cc(N5CCCC5)nc(N5CCCC5)n4)CC3)CC[C@@H]12.O=C(O)/C=C\C(=O)O` [U-74389G maleate], the “% 25 nM CA200645 binding” value came to 36.9 ± 10.8%.
Regarding `CCCN(CCC)C1Cc2cc(OC)c(OC)cc2C1.O=C(O)/C=C\C(=O)O` [U-99194A maleate], the “% 25 nM CA200645 binding” value was 101.3 ± 8.9%.
Then `CC(C)Oc1cccnc1N(C)C1CCN(Cc2ccccc2)CC1.O=C(O)/C=C\C(=O)O` [U-101958 maleate], with 102.1 ± 9.0%; and `c1ccc(C(NCc2cccnc2)(c2ccccc2)c2ccccc2)cc1` [UCL 2077], with 52.2 ± 5.4%; and `Brc1c(NC2=NCCN2)ccc2nccnc12` [UK 14,304], with 102.1 ± 10.4%.
The value for `COc1ccccc1N1CCN(CCCNc2cc(=O)n(C)c(=O)n2C)CC1` [Urapidil hydrochloride] was 97.1 ± 1.5%; that for `COc1ccccc1N1CCN(CCCNc2c(C)c(=O)n(C)c(=O)n2C)CC1` [Urapidil, 5-Methyl-] was 83.5 ± 22.8%.
As for `O=c1ccn([C@@H]2O[C@H](COP(=O)([O-])OP(=O)([O-])O)[C@@H](O)[C@H]2O)c(=O)[nH]1.[Na+].[Na+]` [Uridine 5'-diphosphate sodium], the “% 25 nM CA200645 binding” value was found to be 100.6 ± 5.7%.
Then `C[C@H](N)CN1CCc2ccc(Br)cc21.C[C@H](N)CN1CCc2ccc(Br)cc21.O=C(O)/C=C/C(=O)O` [VER-3323 hemifumarate salt], with 107.7 ± 7.9%.
As for `CCCC(CCC)C(=O)O` [Valproic acid sodium], the “% 25 nM CA200645 binding” value is reported as 99.8 ± 9.6%.
The value for `CCN(CC)C(=O)c1ccc(O)c(OC)c1` [Vanillic acid diethylamide] was 101.7 ± 2.4%.
For `O=C(O)C(O)C(O)C(=O)O.c1cnc2cc3c(cc2n1)[C@@H]1CNC[C@H]3C1` [Varenicline tartrate], the “% 25 nM CA200645 binding” value was found to be 90.5 ± 2.6%.
Regarding `COc1ccc(C(CN(C)C)C2(O)CCCCC2)cc1` (stereo not shown) [Venlafaxine hydrochloride], the “% 25 nM CA200645 binding” value was 97.3 ± 8.5%.
As to `CC[C@]1(O)C[C@@H]2CN(CCc3c([nH]c4ccccc34)[C@@](C(=O)OC)(c3cc4c(cc3OC)N(C)[C@H]3[C@@](O)(C(=O)OC)[C@H](OC(C)=O)[C@]5(CC)C=CCN6CC[C@]43[C@@H]65)C2)C1.O=S(=O)(O)O` [Vinblastine sulfate salt], the “% 25 nM CA200645 binding” value is recorded as 98.2 ± 16.0%.
Regarding `CC[C@]1(O)C[C@H]2CN(CCc3c([nH]c4ccccc34)[C@@](C(=O)OC)(c3cc4c(cc3OC)N(C=O)[C@H]3[C@@](O)(C(=O)OC)[C@H](OC(C)=O)[C@]5(CC)C=CCN6CC[C@]43[C@@H]65)C2)C1` [Vincristine sulfate], the “% 25 nM CA200645 binding” value stood at 106.1 ± 21.2%.
As to `CCOC(=O)C1=C[C@]2(CC)CCCN3CCc4c(n1c1ccccc41)[C@@H]32` [Vinpocetine], the “% 25 nM CA200645 binding” value was 97.3 ± 11.5%.
On to `C[C@@H](c1ncncc1F)[C@](O)(Cn1cncn1)c1ccc(F)cc1F` [Voriconazole], for which the “% 25 nM CA200645 binding” value came out at 96.1 ± 10.4%.
As to `COc1ccccc1N1CCN(CCN(C(=O)C2CCCCC2)c2ccccn2)CC1.O=C(O)/C=C\C(=O)O` [WAY-100635 maleate], the “% 25 nM CA200645 binding” value is reported as 90.8 ± 17.8%.
Then `COc1cccc(OC)c1OCCNCC1COc2ccccc2O1.Cl` (stereo not shown) [WB-4101 hydrochloride], with 76.0 ± 5.8%; and `C#C[C@]1(O)CC[C@H]2[C@@H]3CCC4=Cc5nc6nc7ccccc7n6cc5C[C@]4(C)[C@H]3CC[C@@]21C` [WIN 62,577], with 67.3 ± 5.6%.
